Measured values published in ChEMBL document CHEMBL1156824, “Physicochemical space for optimum oral bioavailability: contribution of human intestinal absorption and first-pass elimination” (J Med Chem, 2010).

Experiments:
[1] = species: Homo sapiens; assay: Fraction escaping hepatic elimination in human; conditions: in vivo
[2] = system: Homo sapiens; assay: Oral bioavailability in human; conditions: in vivo
[3] = species: Homo sapiens; assay: Fraction escaping gut-wall elimination in human; conditions: in vivo
[4] = species: Homo sapiens; assay: Fraction absorbed in human; conditions: in vivo
[5] = clinical; conditions: human, in vivo
[6] = species: Homo sapiens; assay: Hepatic clearance in human; conditions: in vivo
[7] = Volume of distribution at steady state in human; conditions: in vivo

CNCCCN1c2ccccc2CCc2ccccc21 [DESIPRAMINE]
Fh [1]: 0.53 | F_fraction [2]: 0.4

CN1[C@@H]2CC[C@H]1C[C@@H](OC(=O)C(CO)c1ccccc1)C2 (some centres not stated) [ATROPINE]
Fh [1]: 0.86 | Fg [3]: 0.59 | Fa [4]: 0.98

Clc1ccc2nsnc2c1NC1=NCCN1 [TIZANIDINE]
Fh [1]: 0.54 | CL renal [5]: 0.3 mL/min/kg | Fg [3]: 0.39 | Fa [4]: 1 | CL [6]: 10.7 mL/min/kg | F_fraction [2]: 0.21

CN/C(=N/CCSCc1nc[nH]c1C)NC#N [CIMETIDINE]
Fh [1]: 0.99 | Fa [4]: 0.68 | CL [6]: 0.2 mL/min/kg | F_fraction [2]: 0.68

CNCCC=C1c2ccccc2CCc2ccccc21 [NORTRIPTYLINE]
Fh [1]: 0.57 | Fg [3]: 0.89 | Fa [4]: 1 | CL [6]: 9.8 mL/min/kg | F_fraction [2]: 0.51

O=[N+]([O-])O[C@@H]1CO[C@H]2[C@@H]1OC[C@@H]2O [ISOSORBIDE MONONITRATE]
CL [6]: 1.9 mL/min/kg | Vd [7]: 0.7 L/kg

CC(C(=O)O)c1ccc(C(=O)c2cccs2)cc1 (configuration not stated) [SUPROFEN]
CL renal [5]: 0.0357 mL/min/kg | CL [6]: 0.7 mL/min/kg | Vd [7]: 0.04 L/kg

O=C1Cc2cc(CCN3CCN(c4nsc5ccccc45)CC3)c(Cl)cc2N1 [ZIPRASIDONE]
CL renal [5]: 0.1 mL/min/kg | CL [6]: 5 mL/min/kg | Vd [7]: 1 L/kg

O=C1NCC2(CCN(CCc3ccccc3)CC2)O1 [FENSPIRIDE]
CL renal [5]: 1.8 mL/min/kg | CL [6]: 0.8 mL/min/kg | Vd [7]: 3 L/kg

Nc1nc(O)c2ncn(COC(CO)CO)c2n1 [GANCICLOVIR]
CL [6]: 0.5 mL/min/kg | F_fraction [2]: 0.09 | Vd [7]: 1 L/kg

CCCCNC(=O)NS(=O)(=O)c1ccc(C)cc1 [TOLBUTAMIDE]
Fh [1]: 0.99 | CL renal [5]: 0.0002 mL/min/kg

O=C(O)c1cn(C2CC2)c2cc(N3CCNCC3)c(F)cc2c1=O [CIPROFLOXACIN]
Fh [1]: 0.94 | Fg [3]: 0.98 | Fa [4]: 0.75

CO[C@H]1/C=C/O[C@@]2(C)Oc3c(C)c(O)c4c(c3C2=O)C2=NC3(CCN(CC(C)C)CC3)NC2=C(NC(=O)/C(C)=C\C=C\[C@H](C)[C@H](O)[C@@H](C)[C@@H](O)[C@@H](C)[C@H](OC(C)=O)[C@@H]1C)C4=O [RIFABUTIN]
Fh [1]: 0.91 | CL [6]: 2 mL/min/kg | F_fraction [2]: 0.2

Cc1ncc([N+](=O)[O-])n1CCO [METRONIDAZOLE]
CL renal [5]: 0.2 mL/min/kg | CL [6]: 0.7 mL/min/kg | Vd [7]: 0.4 L/kg

CN1CCC[C@H]1c1cccnc1 [NICOTINE]
Fh [1]: 0.35 | Fg [3]: 0.86 | Fa [4]: 1 | CL [6]: 15 mL/min/kg | F_fraction [2]: 0.3

CN1C(C(=O)Nc2ccccn2)=C(O)c2sccc2S1(=O)=O [TENOXICAM]
Fh [1]: 1 | CL renal [5]: 0.0003 mL/min/kg | Fg [3]: 1 | Fa [4]: 1 | CL [6]: 0.0297 mL/min/kg | F_fraction [2]: 1

O=C(O)c1cc(/N=N/c2ccc(O)c(C(=O)O)c2)ccc1O [OLSALAZINE]
CL renal [5]: 0.3 mL/min/kg | CL [6]: 0.9 mL/min/kg | Vd [7]: 0.07 L/kg

CC1=C(C(=O)O)N2C(=O)[C@@H](NC(=O)[C@H](N)c3ccccc3)[C@H]2SC1 [CEPHALEXIN ANHYDROUS]
Fg [3]: 0.91

O=P1(N(CCCl)CCCl)NCCCO1 (configuration not stated) [CYCLOPHOSPHAMIDE ANHYDROUS]
Fh [1]: 0.96 | CL renal [5]: 0.1 mL/min/kg | Fg [3]: 0.86 | Fa [4]: 0.9 | CL [6]: 1 mL/min/kg | F_fraction [2]: 0.74

CC[C@H](C)C(=O)O[C@H]1C[C@@H](C)C=C2C=C[C@H](C)[C@H](CC[C@@H]3C[C@@H](O)CC(=O)O3)[C@H]21 [LOVASTATIN]
Fh [1]: 0.72 | CL renal [5]: 0.7 mL/min/kg | CL [6]: 6.5 mL/min/kg

COC(=O)C1=C(C)NC(C)=C(C(=O)OCCN(C)Cc2ccccc2)C1c1cccc([N+](=O)[O-])c1 (configuration not stated) [NICARDIPINE]
Vd [7]: 1 L/kg

CC(C)(C)NCC(O)c1ccc(O)c(CO)c1 (configuration not stated) [ALBUTEROL]
Fh [1]: 0.88

Nc1ccc(S(=O)(=O)c2ccc(N)cc2)cc1 [DAPSONE]
Fh [1]: 0.98 | CL [6]: 0.4 mL/min/kg

Cc1cc(NS(=O)(=O)c2ccc(N)cc2)no1 [SULFAMETHOXAZOLE]
Fh [1]: 0.99 | Fg [3]: 1.01 | Fa [4]: 1

CN(C)C(=N)N=C(N)N [METFORMIN]
Fh [1]: 1

CCN1CCCC1CNC(=O)c1cc(S(N)(=O)=O)ccc1OC (configuration not stated) [SULPIRIDE]
CL [6]: 0.1 mL/min/kg | F_fraction [2]: 0.27 | Vd [7]: 2.72 L/kg

CC[C@H]1OC(=O)[C@H](C)[C@@H](O[C@H]2C[C@@](C)(OC)[C@@H](O)[C@H](C)O2)[C@H](C)[C@@H](O[C@@H]2O[C@H](C)C[C@H](N(C)C)[C@H]2O)[C@](C)(O)C[C@@H](C)CN(C)[C@H](C)[C@@H](O)[C@]1(C)O [AZITHROMYCIN]
CL renal [5]: 0.5 mL/min/kg | CL [6]: 9.6 mL/min/kg | F_fraction [2]: 0.34

CNC(=C[N+](=O)[O-])NCCSCc1csc(CN(C)C)n1 [NIZATIDINE]
CL [6]: 2.5 mL/min/kg | Vd [7]: 1 L/kg

CN1[C@@H]2C[C@@H](OC(=O)[C@H](CO)c3ccccc3)C[C@H]1[C@@H]1O[C@@H]12 [SCOPOLAMINE]
Fh [1]: 0.35 | Fg [3]: 0.82

Cc1nnc2n1-c1ccc(Cl)cc1C(c1ccccc1)=NC2 [ALPRAZOLAM]
CL renal [5]: 0.1 mL/min/kg | CL [6]: 0.6 mL/min/kg | Vd [7]: 0.8 L/kg

CC[C@H]1OC(=O)[C@H](C)[C@@H](O[C@H]2C[C@@](C)(OC)[C@@H](O)[C@H](C)O2)[C@H](C)[C@@H](O[C@@H]2O[C@H](C)C[C@H](N(C)C)[C@H]2O)[C@](C)(O)C[C@@H](C)C(=O)[C@H](C)[C@@H](O)[C@]1(C)O [ERYTHROMYCIN]
CL renal [5]: 0.3 mL/min/kg | CL [6]: 5.3 mL/min/kg | F_fraction [2]: 0.35

O=C(O)P(=O)(O)O [FOSCARNET]
CL [6]: 0.4 mL/min/kg | Vd [7]: 0.5 L/kg

CN1CCN(c2c(F)cc3c(=O)c(C(=O)O)cn(CCF)c3c2F)CC1 [FLEROXACIN]
CL [6]: 0.9 mL/min/kg | Vd [7]: 1.3 L/kg

CC(=O)Nc1ccc(O)cc1 [ACETAMINOPHEN]
Vd [7]: 1 L/kg

COc1cc(Cc2cnc(N)nc2N)cc(OC)c1OC [TRIMETHOPRIM]
Fh [1]: 0.95 | Fg [3]: 0.83 | Fa [4]: 0.97 | F_fraction [2]: 0.76

CCN1CCCC1CNC(=O)c1cc(S(=O)(=O)CC)c(N)cc1OC (configuration not stated) [AMISULPRIDE]
CL [6]: 3.4 mL/min/kg | Vd [7]: 5.8 L/kg

CN1Cc2c(N)cccc2C(c2ccccc2)C1 (configuration not stated) [NOMIFENSINE]
CL [6]: 9.5 mL/min/kg | Vd [7]: 6 L/kg

CC(C)NCC(O)COc1ccc(CC(N)=O)cc1 (configuration not stated) [ATENOLOL]
Fh [1]: 1 | Fg [3]: 1

O=C(c1ccc(F)cc1)C1CCN(CCn2c(=O)[nH]c3ccccc3c2=O)CC1 [KETANSERIN]
CL renal [5]: 0.1 mL/min/kg | CL [6]: 6.6 mL/min/kg | F_fraction [2]: 0.5

CN(C)c1ccc(O)c2c1C[C@H]1C[C@H]3[C@H](N(C)C)C(O)=C(C(N)=O)C(=O)[C@@]3(O)C(O)=C1C2=O [MINOCYCLINE]
CL renal [5]: 0.1 mL/min/kg | CL [6]: 1.1 mL/min/kg | F_fraction [2]: 1

CC(C)NCC(O)COc1ccc(CCOCC2CC2)cc1 (configuration not stated) [BETAXOLOL]
Fh [1]: 0.88 | Fg [3]: 1.01 | Fa [4]: 1 | CL [6]: 2.7 mL/min/kg | F_fraction [2]: 0.89

CCCCc1oc2ccccc2c1C(=O)c1cc(I)c(OCCN(CC)CC)c(I)c1 [AMIODARONE]
Fh [1]: 0.92 | Fg [3]: 0.71 | Fa [4]: 1

CC(C)(C)NC(=O)[C@@H]1C[C@@H]2CCCC[C@@H]2CN1C[C@@H](O)[C@H](Cc1ccccc1)NC(=O)[C@H](CC(N)=O)NC(=O)c1ccc2ccccc2n1
Fh [1]: 0.45

Nc1ccc(S(=O)(=O)Nc2ncccn2)cc1 [SULFADIAZINE]
Fh [1]: 0.99 | CL renal [5]: 0.3 mL/min/kg | Fg [3]: 1.01 | Fa [4]: 0.85 | CL [6]: 0.2 mL/min/kg | F_fraction [2]: 0.85

O=C(O)Cc1ccccc1Nc1c(Cl)cccc1Cl [DICLOFENAC]
Fh [1]: 0.85 | CL renal [5]: 0.035 mL/min/kg | CL [6]: 3.5 mL/min/kg

CCCc1nc(C)c2c(=O)[nH]c(-c3cc(S(=O)(=O)N4CCN(CC)CC4)ccc3OCC)nn12
Vd [7]: 3 L/kg

Nc1ccn([C@H]2CC[C@@H](CO)O2)c(=O)n1 [ZALCITABINE]
Fh [1]: 0.95 | CL renal [5]: 4.5 mL/min/kg | CL [6]: 1.1 mL/min/kg

CC(C)n1c(/C=C/C(O)CC(O)CC(=O)O)c(-c2ccc(F)cc2)c2ccccc21 (configuration not stated) [FLUVASTATIN]
Fh [1]: 0.3
